Results published in patent US10478431B2, “Methods for treating a cytomegalovirus infection” (priority 2014, dated 2019).
“Also recorded” adds a separate entry of the source. Structures can show the parent of a compound that is named as a salt.

Experiments:
Smith strain of MCMV = test: Murine CMV replication kinetics in BALB/c mice; format: in vivo
Procedure: Murine CMV (MCMV) replication kinetics were performed in BALB/c mice using the Smith strain of MCMV as previously described (Orr et al., 2010) and on NIH 3T3 cells using same methods as for HCMV. Rhesus CMV (RhCMV) viral replication kinetics were performed on rhesus fibroblast cells as described in (Lilja et al., 2008).

[1] = tested on: CMV AD169 (a laboratory strain of HCMV); test: Human CMV viral replication kinetics in MRCS cells (TCID50, PFU/ml); format: cell-based, human CMV (hCMV)
Procedure: MRCS cells were seeded into cell culture plates and maintained for 1 to 2 days until cells reached confluency at ˜5×10^4 cells per well. The monolayers were then infected with recombinant virus human CMV IE2-YFP or CMV-GFP as a control. HCMV IE2-YFP was used as the control virus for replication kinetics with the Δcrs IE2-YFP recombinant virus. Cells were infected at a multiplicity of infection (MOI) of 1, 0.2, or 0.1, as indicated. Inoculum was prepared using virus stocks diluted in culture media, and adsorbed onto cells in a volume of 200 μl for one hour at 37° C. in a humidified CO2 incubator. Inoculum was then removed and replaced with one mL of fresh media. The amount of infectious virus to prepare inoculum was based on plaque assay titrations (Bolovan-Fritts and Wiedeman, 2001) of virus stocks and is shown as time point 0 in each figure. For each time point three separate sample wells were collected. Infectious cell-free virus was collected by harvesting medium from infected culture wells at indicated time points and stored at −80° C. To measure replication, samples were thawed and prepared as a 10-fold serial dilution series in culture media, then analyzed by TCID50. The results were then converted to plaque-forming units per ml (PFU/ml). Error ranges were calculated using standard deviation.

mCMV CRS sequence = test: bisBenzimide binding assay (fluorescence), mCMV CRS saturation curve; details: BB33258 titrated from 10 μM to 1 nM; FIG. 18
Procedure: (§1) Serial dilutions for each CRS sequence were prepared. Each CRS sequence was held constant at 10 μM while BB33258 was titrated from 10 μM to 1 nM. All assays were performed at room temperature (˜25° C. in DPBS). Serial dilutions were pipetted into 96-well glass bottom plate and allowed to equilibrate for 3 hours at room temperature in the dark. Plates were then assayed for fluorescence intensity using Perkin-Elmer EnSpyre multimode plate reader. Scans from 370 nm to 580 nm for each sequence were obtained. Dilution concentrations and BB33258 combinations that saturated the PMT were excluded.

HCMV = HCMV infection across a range of virus concentrations, 10 days post-infection; format: cell-based, human CMV (hCMV); details: wide range of virus concentrations, FIG. 23
From the text: All time points were taken at 10 days post-infection as described in Teng et al. Cell 2012 (cited herein).

[2] = tested on: latent CMV in N-Tera2 cells; test: N-Tera2 latency assay (reactivation of latent CMV); format: cell-based, human CMV (hCMV); details: FIG. 4 lower panel, trihydrochloride hydrate
Procedure: Reactivation of latent CMV in N-Tera2 cells was conducted as previously described in (Meier, 2001).

[3] = tested on: IE2 circuit in clinically derived CMV isolate TB40E; test: Flow cytometry of TB40E infected ARPE cells; format: cell-based, human CMV (hCMV); details: 17 h and 20 h post infection, FIG. 21
Procedure: Flow cytometry was performed on TB40E infected ARPE cells at 17 h and 20 h post infection. The data was analyzed as described in Teng et al. Cell 2012, cited herein.

[4] = tested on: CRS sequences (tetranucleotide motif TTTA); test: bisBenzimide binding assay (fluorescence) with CRS sequences; set-up: species or system hCMV; details: CRS sequence 10 μM, BB33258 10 μM to 1 nM, room temperature, DPBS; FIGS. 15 and 16; trihydrochloride hydrate
Procedure: as §1

CN1CCN(c2ccc3[nH]c(-c4ccc5[nH]c(-c6ccc(O)cc6)nc5c4)nc3c2)CC1 [Hoechst 33258, 2′-(4-hydroxyphenyl)-5-(4-methyl-1-piperazinyl)-2,5′-bi-1H-benzimidazole trihydrochloride hydrate]
reduction of mCMV replication (Smith strain of MCMV): ~5 fold
reduction of hCMV replication ([1]; FIG. 10): more than 100 fold
HCMV viral replication ([1]; MRCS cells, CMV AD169, 5, 10 or 20 μM Hoechst 33258, data in PFU/ml, FIG. 3, trihydrochloride hydrate): inhibited HCMV viral replication; also recorded: significantly reduced HCMV replication
saturation of binding to mCMV CRS (mCMV CRS sequence): did not saturate within the range of concentrations tested
HCMV infection (HCMV): inhibits HCMV infection across a wide range of virus concentrations
reactivation of latent CMV [2]: reactivated latent CMV; also recorded: reactivation of latent HCMV
IE2 circuit / IE2 expression levels [3]: breaks the IE2 circuit and amplifies IE2 expression levels
DNA binding specificity (motif) [4]: binds primarily to a specific tetranucleotide motif (TTTA)
